Reference: patent publication US20240041764A1, “Sustained-Release Oral Fosamprenavir Formulation for Treatment of Reflux” (The Medical College of Wisconsin, Inc., priority 2022, published 2024)
“Also recorded” adds a separate entry of the source.

Experiments:
[1] = in vivo; cited from earlier work
porcine pepsin A = target: T1, porcine pepsin A (Sus scrofa, UniProt P00791); experiment: competitive binding assay, fluorescence polarization with pepstatin-Alexa647; details: 100 nM probe, 0.03 U/ul porcine pepsin A, 37.5% DMSO, 0.1 M HCl pH 1
T1 construct: purchased Worthington Biochemical Corporation
T1 sequence (P00791 60-385): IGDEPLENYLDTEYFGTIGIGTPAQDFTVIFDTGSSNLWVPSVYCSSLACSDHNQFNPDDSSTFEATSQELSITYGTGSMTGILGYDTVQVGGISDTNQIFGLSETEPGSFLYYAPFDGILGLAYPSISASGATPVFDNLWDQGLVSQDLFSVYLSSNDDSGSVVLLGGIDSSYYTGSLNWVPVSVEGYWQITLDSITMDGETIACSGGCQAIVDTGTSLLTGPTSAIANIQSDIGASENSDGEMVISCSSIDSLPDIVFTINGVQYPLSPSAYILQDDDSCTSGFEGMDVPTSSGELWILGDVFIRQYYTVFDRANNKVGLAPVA
Experimental: To examine whether HIV protease inhibitors bound and inhibited pepsin, we developed assays based on fluorescence polarization which measures size-dependent molecular rotation thereby permitting detection of degradation, association and dissociation events^80. A competitive binding assay was designed employing pepstatin, an inhibitor of sub-nanomolar affinity^81. Pepstatin-Alexa647 was synthesized by dissolving 1 mg pepstatin A (Sigma-Aldrich) in a 50:50 mixture of dimethylformamide (DMF) and dimethylsulfoxide (DMS) followed by the addition of N,N,N′,N′-Tetramethyl-O—(N-succinimidyl)uronium tetrafluoroborate (0.6 mg) and trimethylamine (10 μL) DMF. The mixture was stirred for 1 hour, after which 1 mg Alexa Fluor 647 Cadaverine, Disodium Salt (ThermoFisher Scientific) was added. After 2 hours, the solvents were evaporated under high vacuum (35° C.) and residue partially dissolved in 10% methanol and transferred onto a C18 cartridge (Waters Corporation, Milford, MA). Increasing percentages of methanol were used for the elution. Pepstatin-Alexa647 eluted at 45% methanol. An enzymatic inhibition assay was designed using casein substrate.^82 Bovine alpha casein (Sigma-Aldrich, St. Louis, MO) was labeled with Alexa Fluor 647 Carboxylic Acid, Succinimidyl Ester (ThermoFisher Scientific, Waltham, MA) as described.^82 Briefly, the two were combined at 2.5 ug/mg label to protein ratio in 0.1M sodium bicarbonate for 15 minutes and labeled casein was separated from unbound label in a Sephadex G-25 (Sigma-Aldrich) column comprised of 90×5 mm packed beads in a glass Pasteur pipette, eluted with dPBS pH7.4 (ThermoFisher Scientific). The fast-moving band (casein-bound fluorophore) was collected in ˜0.4 ml volume. […]
(§1) Assays were optimized using ranges of 0.3-1000 μM unlabeled pepstatin, 100-500 nM pepstatin-Alexa647 or casein-Alexa647 probe, 0.003-3 U/μl porcine pepsin (Worthington Biochemical Corporation, Lakewood, NJ), and 5-37.5% DMSO (HIV protease inhibitor diluent) in 0.1 M HCl, pH 1 with 0.01% v/v Tween-20 in 20 μl volumes in 384-well black optical plates (Nunc, Roskilde, DK) and read on a BioTek Cytation 5 (BioTek Instruments, Winooski, VT) with far red FP filter cube (excitation/emission 620/680 nm). […] Assays were performed twice with triplicate reactions read for five minutes and mean mP plotted against probe concentration (binding assay) or read at <2 minutes intervals over 30 minutes with mean mP of plotted over time (activity assay). Half maximal inhibitory concentration (IC50) of inhibitors were calculated from kinetic traces analyzed using an online tool (https://icekat.herokuapp.com/icekat)^83. mP was normalized to blank (absent inhibitor) to derive percent bound or activity.

[2] = solubility when preparing co-crystallization solutions; format: physicochemical; details: saturated solution in DMSO for co-crystallization; CryoSol SM2 chosen instead
Experimental: Supernatant of saturated saquinivar solution in SM2 was combined with pepsin at 5% f.c. (v/v). Crystallization conditions were optimized by screening 200 mg/ml pepsin in the Salt RX screen (Hampton Research, Viejo, CA). […] Diffraction quality crystals (triangular bi-pyramids, approximately 200×100×100 μm) formed after 2-7 days from hanging drops of 2 ul pepsin (180-210 mg/ml) and 1 ul microseed solution serially diluted 10-100× above 3-4M ammonium chloride and 0.1M sodium acetate trihydrate pH4.6. Crystals were cryoprotected by 30% glucose, 5M ammonium chloride and 0.1 M sodium acetate trihydrate pH4.6 and plunged in liquid nitrogen. Co-crystallization with saquinavir was performed in 0.1M acetic acid rather than sodium acetate trihydrate as this permitted large crystal formation without a microseed; crystals were cryoprotected by 30% w/v glucose, 5M ammonium chloride and 0.1 M sodium acetate trihydrate pH 4.6 and plunged in liquid nitrogen.

porcine pepsin = target: T2, porcine pepsin (Sus scrofa, UniProt P00791); experiment: peptic activity assay, fluorescence polarization with casein-Alexa647; format: biochemical
T2 construct: purchased Worthington Biochemical Corporation
T2 sequence (P00791 60-385): as above
Experimental: To examine whether HIV protease inhibitors bound and inhibited pepsin, we developed assays based on fluorescence polarization which measures size-dependent molecular rotation thereby permitting detection of degradation, association and dissociation events^80. A competitive binding assay was designed employing pepstatin, an inhibitor of sub-nanomolar affinity^81. Pepstatin-Alexa647 was synthesized by dissolving 1 mg pepstatin A (Sigma-Aldrich) in a 50:50 mixture of dimethylformamide (DMF) and dimethylsulfoxide (DMS) followed by the addition of N,N,N′,N′-Tetramethyl-O—(N-succinimidyl)uronium tetrafluoroborate (0.6 mg) and trimethylamine (10 μL) DMF. The mixture was stirred for 1 hour, after which 1 mg Alexa Fluor 647 Cadaverine, Disodium Salt (ThermoFisher Scientific) was added. After 2 hours, the solvents were evaporated under high vacuum (35° C.) and residue partially dissolved in 10% methanol and transferred onto a C18 cartridge (Waters Corporation, Milford, MA). Increasing percentages of methanol were used for the elution. […] An enzymatic inhibition assay was designed using casein substrate.^82 Bovine alpha casein (Sigma-Aldrich, St. Louis, MO) was labeled with Alexa Fluor 647 Carboxylic Acid, Succinimidyl Ester (ThermoFisher Scientific, Waltham, MA) as described.^82 Briefly, the two were combined at 2.5 ug/mg label to protein ratio in 0.1M sodium bicarbonate for 15 minutes and labeled casein was separated from unbound label in a Sephadex G-25 (Sigma-Aldrich) column comprised of 90×5 mm packed beads in a glass Pasteur pipette, eluted with dPBS pH7.4 (ThermoFisher Scientific). The fast-moving band (casein-bound fluorophore) was collected in ˜0.4 ml volume. Concentration of resultant probe (casein-Alexa647 in PBS-azide) was estimated via spectrophotometry using Beer's law (Implen Nanophotometer, Implen, Inc. Westlake Village, CA).
as §1, with “nm). Unlabeled pepstatin dose-response curves were used to ensure that the assays were responsive to pepsin inhibition.” for “nm).”

[3] = prodrug relative to amprenavir; cited from earlier work
[4] = test system: LPR mouse model (pepsin-mediated laryngeal damage); experiment: in vivo LPR mouse model: mechanical injury plus laryngeal pepsin instillation, H&E histology; details: for protection against pepsin-mediated laryngeal damage (histology): 0.3 mg/ml pepsin pH7, 4 weeks
Description: Three replicate animals per treatment condition were anticipated to suffice for verification of reproducibility in each experiment without excessive use of animal life. The three mice were randomly allocated to treatment groups. No data were excluded from analysis.
Six-week-old female Jackson A/J mice (Jackson Laboratory, Bar Harbor, ME) were fed D-62 powdered Wattenberg diet, 2 g/mouse/day^95 and allowed to acclimate for one week upon arrival prior to experiments. In accord with previously established methods for modeling aerodigestive tract damage attributed to GERD and LPR,^1,95-99 mechanical injury applied during the first two weeks of a four-week treatment course was used to predispose the laryngeal mucosa to chemical injury by pepsin/acid applied throughout the four weeks. […] Briefly, anesthetized mice were suspended by upper teeth on a slanted board under an operating microscope.
In a preliminary experiment to validate the LPR mouse model (i.e. laryngeal damage by pepsin at neutral and acidic pH), 20 μl saline (solvent control) or 0.3 mg/ml pepsin at pH7.0 or 4.0 were provided to mice (n=3) by laryngeal instillation at 24, 48, and 72 hours after mechanical injury during weeks 1 and 2 (FIG. 6); laryngeal instillation without wounding (3 days/week) continued during weeks 3 and 4. […] Mice were sacrificed at conclusion of the fourth week.
To test the protective effect of HIV protease inhibitors on pepsin-mediated damage in vivo, inhibitors were delivered by aerosol or gavage concurrently with wounding (days 2, 8) and solvent/pepsin instillation (days 3-5, 9-11, 16-18 and 23-25). Aerosol or gavage was provided on days 1-5, 8-12, 15-19, and 22-25, and mice sacrificed day 26. Mice were anesthetized with isoflurane (3% in 2.5LPM, 3-5 minutes prior to procedures) as opposed to Avertin due to frequency. […] Aerosol was generated as described^100. Briefly, a 10 ml suspension of drug in ethanol was placed in the baffle, such that the concentration would remain constant at the equilibrium solubility. Droplets of ethanol containing dissolved drug were generated by an ultrasonic atomizer (nominal frequency 1.7 MHz) and entrained by air at a flow rate of 0.5 LPM with a custom-built glass baffle (UMN Department of Chemistry Glass Shop). The aerosol cloud was then passed through a cylindrical drying column containing an annular ring of charcoal. The ethanol was removed and the emanating dry aerosol particles of pure drug were then directed into the exposure chamber. The mass deposited on filters was measured gravimetrically and total output rate (mg/min) was determined. The aerosol concentration (mass/volume of air) was calculated by dividing the total output rate by the air flow rate (0.5 LPM). The inhaled mass of drug (Minh) for each mouse was defined as Minh=[Aerosol]*RMV*t, where Aerosol is the aerosol concentration of drug, RMV is the respiratory minute volume of the mice (0.025 L/min), and t is the aerosol exposure time. […] Actual mass deposited was not determined but anticipated to be 10% of inhaled mass (the deposition fraction of […] aerosol particles in mice).
Tissues were collected, fixed in paraformaldehyde, embedded in paraffin and 4 um sections stained with hematoxylin and eosin (H&E) via automated stainer. Slides were reviewed by a board-certified pathologist (JM) blinded to treatment groups.

[5] = mice; cited from earlier work

Structure (SMILES)	side effects [1]	bound pepsin (competitive binding) (porcine pepsin A)	solubility [2]	inhibited pepsin (peptic activity) (porcine pepsin; 200 nM probe, 0.01 U/μL pepsin, 5% DMSO, 0.1 M HCl pH 1)	IC50 for pepsin (porcine pepsin; in vitro binding and inhibition assays, IC50 from kinetic traces)	tolerability [1]	bioavailability [3]	laryngeal histology, drug with saline (solvent), no pepsin ([4]; aerosol)	protection against pepsin-mediated laryngeal damage (histology) ([4]; aerosol, inhaled mass 0.93 mg/kg/day fosamprenavir, 12 mg/kg/day darunavir)	laryngeal histology, drug with saline (solvent), no pepsin ([4]; gavage)	protection against pepsin-mediated laryngeal damage (histology) ([4]; gavage, 20 mg/kg/day fosamprenavir (Lexiva), 8.6 mg/kg/day darunavir (Prezista))	protection against pepsin-mediated laryngeal damage (histology) ([4]; gavage, 20 mg/kg/day fosamprenavir (Lexiva), 8.6 mg/kg/day darunavir (Prezista), listed as Fosamprenavir)	protection against pepsin-mediated laryngeal damage (histology) ([4]; gavage, 20 mg/kg/day fosamprenavir (Lexiva), 8.6 mg/kg/day darunavir (Prezista), listed as Lexiva)	laryngeal histology, drug with saline (solvent), no pepsin ([4]; gavage, listed as Lexiva)	pharmacokinetics [5]
CC(C)(C)NC(=O)[C@@H]1C[C@@H]2CCCC[C@@H]2CN1C[C@@H](O)[C@H](Cc1ccccc1)NC(=O)[C@H](CC(N)=O)NC(=O)c1ccc2ccccc2n1 [saquinavir, (2S)-N-[(2S,3R)-4-[(3S,4aS,8aS)-3-(tert-butylcarbamoyl)-3,4,4a,5,6,7,8,8a-octahydro-1H-isoquinolin-2-yl]-3-hydroxy-1-phenylbutan-2-yl]-2-(quinoline-2-carbonylamino)butanediamide]	QT prolongation, heart block, high blood lipids and liver problems	low micromolar	poor solubility	low micromolar	low micromolar range	–	–	–	–	–	–	–	–	–	–
CC(C)CN(C[C@@H](OP(=O)(O)O)[C@H](Cc1ccccc1)NC(=O)O[C@H]1CCOC1)S(=O)(=O)c1ccc(N)cc1 [fosamprenavir, [(3S)-oxolan-3-yl] N-[(2S,3R)-4-[(4-aminophenyl)sulfonyl-(2-methylpropyl)amino]-1-phenyl-3-phosphonooxybutan-2-yl]carbamate]	–	–	–	–	–	favorable tolerability	improved bioavailability	normal histology	prevented pepsin-mediated laryngeal injury; also recorded: protected against pepsin-mediated laryngeal damage	normal histology	prevented pepsin-mediated laryngeal damage	prevented pepsin-mediated laryngeal damage; also recorded: protected against pepsin-mediated laryngeal damage	prevents pepsin-mediated airway epithelial damage	Normal-appearing respiratory epithelium	excellent pharmacokinetics
